In ChEMBL document CHEMBL5042490, “Lead derivatization of ethyl 6-bromo-2-((dimethylamino)methyl)-5-hydroxy-1-phenyl-1H-indole-3-carboxylate and 5-bromo-2-(thiophene-2-carboxamido) benzoic acid as FabG inhibitors targeting ESKAPE pathogens” (Eur J Med Chem, 2022):
pIC50: −log10 of the molar value.

Columns and labels:
[1] = Inhibition of Salmonella typhimurium FabG assessed as reduction in Acetoacetyl-coenzyme-A substrate in presence of NADPH preincubated for 5 mins followed by substrate addition and measured for 6 to 10 mins by spectrophotometric analysis; parameters: species or system Salmonella enterica subsp. enterica serovar Typhimurium; details: for pIC50: read-out: IC50
[2] = Inhibition of Pseudomonas aeruginosa FabG assessed as reduction in Acetoacetyl-coenzyme-A substrate in presence of NADPH preincubated for 5 mins followed by substrate addition and measured for 6 to 10 mins by spectrophotometric analysis
[3] = Inhibition of Klebsiella pneumoniae FabG2 assessed as reduction in Acetoacetyl-coenzyme-A substrate in presence of NADH preincubated for 5 mins followed by substrate addition and measured for 6 to 10 mins by spectrophotometric analysis
[4] = Inhibition of Staphylococcus aureus FabG assessed as reduction in Acetoacetyl-coenzyme-A substrate in presence of NADPH preincubated for 5 mins followed by substrate addition and measured for 6 to 10 mins by spectrophotometric analysis
[5] = Inhibition of Escherichia coli FabG assessed as reduction in Acetoacetyl-coenzyme-A substrate in presence of NADPH preincubated for 5 mins followed by substrate addition and measured for 6 to 10 mins by spectrophotometric analysis; details: for pIC50: read-out: IC50
[6] = Inhibition of Acinetobacter baumannii FabG assessed as reduction in Acetoacetyl-coenzyme-A substrate in presence of NADPH preincubated for 5 mins followed by substrate addition and measured for 6 to 10 mins by spectrophotometric analysis; details: for pIC50: read-out: IC50
[7] = Inhibition of Klebsiella pneumoniae FabG1 assessed as reduction in Acetoacetyl-coenzyme-A substrate in presence of NADPH preincubated for 5 mins followed by substrate addition and measured for 6 to 10 mins by spectrophotometric analysis
[8] = Inhibition of Mycobacterium tuberculosis FabG assessed as reduction in Acetoacetyl-coenzyme-A substrate in presence of NADPH preincubated for 5 mins followed by substrate addition and measured for 6 to 10 mins by spectrophotometric analysis; details: for pIC50: read-out: IC50

SMILES	IC50 [1]	IC50 [2]	IC50 [3]	IC50 [4]	pIC50 [5]	IC50 [6]	IC50 [7]	pIC50 [8]	IC50 [5]	IC50 [8]	pIC50 [1]	pIC50 [6]
CCOC(=O)c1c(CSc2nc3ccccc3s2)n(C)c2cc(Br)c(O)cc12	Not Active	Not Active	Not Active	Not Active	4.50	Not Active	Not Active					
CCOC(=O)c1c(CSc2nc3ccccc3o2)n(C)c2cc(Br)c(O)cc12	Not Active	Not Active	Not Active	Not Active	4.73	Not Active	Not Active					
O=C(CCBr)Nc1ccc(Br)cc1C(=O)O	Not Active	Not Active	Not Active	Not Active		Not Active	Not Active	4.11	Not Active			
CCOC(=O)c1c(CSc2nc3ccccc3s2)n(Cc2ccccc2)c2cc(Br)c(O)cc12	Not Active	Not Active	Not Active	Not Active	4.68	Not Active	Not Active			Not Active		
O=C(Nc1ccc(Br)cc1C(=O)O)c1cccc(I)c1		Not Active	Not Active	Not Active	4.67		Not Active	4.83			4.43	4.80
Cc1c(Br)cccc1C(=O)Nc1ccc(Br)cc1C(=O)O	Not Active	Not Active	Not Active	Not Active			Not Active		Not Active			4.44
O=C(O)c1cc(Br)ccc1NC(=O)c1cccnc1Cl		Not Active	Not Active	Not Active	4.80	Not Active	Not Active				4.29	
